Drawing on ChEMBL document CHEMBL6109156, “Discovery of Dual PD-L1/HDAC3 Inhibitors for Tumor Immunotherapy” (J Med Chem, 2025), this text covers inhibition and IC50 for 22 molecules.

Experiment [1] concerns the target T1, Programmed cell death protein 1/Programmed cell death 1 ligand 1 (Homo sapiens) (UniProt Q15116+Q9NZQ7). Put plainly: (§1) Inhibition of PD-1/PD-L1 (unknown origin) interaction assessed as inhibition rate at 1 uM by HTRF assay relative to control. It is filed as protein-complex assay.
Experiment [2] concerns the target T1, Programmed cell death protein 1/Programmed cell death 1 ligand 1 (Homo sapiens). The experiment can be described thus: Inhibition of PD-1/PD-L1 (unknown origin) interaction assessed as inhibition rate at 0.1 uM by HTRF assay relative to control. In kind it is protein-complex assay.
The target in experiment [3] is T2, Protein deacetylase HDAC6 (Homo sapiens, UniProt Q9UBN7).
T2 sequence (Q9UBN7 whole entry): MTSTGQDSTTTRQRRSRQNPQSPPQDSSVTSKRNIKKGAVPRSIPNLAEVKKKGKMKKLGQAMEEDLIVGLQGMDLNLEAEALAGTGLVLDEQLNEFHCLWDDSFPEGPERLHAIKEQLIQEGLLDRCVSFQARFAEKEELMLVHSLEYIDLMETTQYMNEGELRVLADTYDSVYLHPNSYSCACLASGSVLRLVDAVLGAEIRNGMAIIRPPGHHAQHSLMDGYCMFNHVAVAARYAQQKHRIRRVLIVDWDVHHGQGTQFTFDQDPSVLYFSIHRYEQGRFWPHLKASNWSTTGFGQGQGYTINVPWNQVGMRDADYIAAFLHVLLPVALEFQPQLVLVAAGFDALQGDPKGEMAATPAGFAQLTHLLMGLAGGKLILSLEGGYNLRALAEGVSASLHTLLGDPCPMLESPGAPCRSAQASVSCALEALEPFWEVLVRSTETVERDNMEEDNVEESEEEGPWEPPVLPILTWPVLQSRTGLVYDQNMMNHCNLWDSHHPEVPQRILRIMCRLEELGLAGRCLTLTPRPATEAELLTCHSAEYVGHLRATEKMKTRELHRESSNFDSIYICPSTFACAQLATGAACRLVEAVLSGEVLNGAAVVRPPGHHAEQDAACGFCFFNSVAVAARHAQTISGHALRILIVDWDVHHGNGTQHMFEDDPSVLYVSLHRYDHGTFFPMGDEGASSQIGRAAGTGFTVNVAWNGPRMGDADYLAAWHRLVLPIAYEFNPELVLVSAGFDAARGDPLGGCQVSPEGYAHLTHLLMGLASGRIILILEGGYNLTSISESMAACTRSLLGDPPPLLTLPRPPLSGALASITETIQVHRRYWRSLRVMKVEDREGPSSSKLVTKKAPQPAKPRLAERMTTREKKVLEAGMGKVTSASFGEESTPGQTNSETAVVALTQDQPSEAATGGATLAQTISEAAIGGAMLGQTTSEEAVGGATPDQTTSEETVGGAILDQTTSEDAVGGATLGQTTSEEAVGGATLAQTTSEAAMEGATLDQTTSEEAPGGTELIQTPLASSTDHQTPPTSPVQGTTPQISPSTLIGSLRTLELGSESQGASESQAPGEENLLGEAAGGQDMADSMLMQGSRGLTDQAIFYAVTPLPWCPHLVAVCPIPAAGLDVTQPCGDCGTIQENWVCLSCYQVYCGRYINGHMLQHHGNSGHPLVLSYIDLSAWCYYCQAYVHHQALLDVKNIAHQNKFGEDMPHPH
The experiment can be described thus: Inhibition of human recombinant HDAC6 using Ac-Leu-Gly-Lys (Ac)-AMC as substrate preincubated for 10 mins followed by substrate addition and measured after 45 mins by TECAN microtiter plate reader analysis.

In experiment [4] the target is Histone deacetylase 1 (Homo sapiens, UniProt Q13547). The experiment can be described thus: Inhibition of human recombinant HDAC1 using Ac-Leu-Gly-Lys (Ac)-AMC as substrate preincubated for 10 mins followed by substrate addition and measured after 45 mins by TECAN microtiter plate reader analysis.
The target in experiment [5] is T3, Histone deacetylase 8 (Homo sapiens, UniProt Q9BY41).
T3 sequence (Q9BY41 whole entry): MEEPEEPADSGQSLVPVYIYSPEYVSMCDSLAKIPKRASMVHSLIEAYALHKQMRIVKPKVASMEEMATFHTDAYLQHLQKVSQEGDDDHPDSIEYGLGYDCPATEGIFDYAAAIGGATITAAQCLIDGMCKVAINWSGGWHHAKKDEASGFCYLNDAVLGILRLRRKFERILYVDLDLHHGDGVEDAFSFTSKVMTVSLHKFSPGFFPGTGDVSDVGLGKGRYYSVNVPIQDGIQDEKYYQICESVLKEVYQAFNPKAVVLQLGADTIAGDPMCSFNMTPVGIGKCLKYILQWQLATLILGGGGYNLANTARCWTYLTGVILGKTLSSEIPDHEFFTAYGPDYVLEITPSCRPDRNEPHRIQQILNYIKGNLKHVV
The experiment can be described thus: Inhibition of human recombinant HDAC8 using Ac-Leu-Gly-Lys (Tfa)-AMC as substrate preincubated for 10 mins followed by substrate addition and measured after 45 mins by TECAN microtiter plate reader analysis.

The target in experiment [6] is T4, Histone deacetylase 3 (Homo sapiens, UniProt O15379). Put plainly: Inhibition of human recombinant HDAC3 using Ac-Leu-Gly-Lys (Ac)-AMC as substrate preincubated for 10 mins followed by substrate addition and measured after 45 mins by TECAN microtiter plate reader analysis.
In experiment [7] the target is T4, Histone deacetylase 3. Put plainly: Inhibition of human recombinant HDAC3 using Ac-Leu-Gly-Lys (Ac)-AMC as substrate at 0.1 uM preincubated for 10 mins followed by substrate addition and measured after 45 mins by TECAN microtiter plate reader analysis relative to control. Conditions: time 55.0 min.
Experiment [8] addresses T4, Histone deacetylase 3. The experiment can be described thus: Inhibition of human recombinant HDAC3 using Ac-Leu-Gly-Lys (Ac)-AMC as substrate at 1 uM preincubated for 10 mins followed by substrate addition and measured after 45 mins by TECAN microtiter plate reader analysis relative to control. Conditions: time 55.0 min.
Experiment [9] deals with Programmed cell death protein 1/Programmed cell death 1 ligand 1 (Homo sapiens, UniProt Q9NZQ7). The experiment is described as §1. In kind it is protein-complex assay.
In experiment [10] the test system is B16-F10. The experiment can be described thus: Antiproliferative activity against mouse B16-F10 cells assessed as cell growth inhibition incubated for 48 hrs by MTT assay. In kind it is functional, cell-based. Conditions: B16-F10, 48 h.
Experiment [11] relates to A-375. The experiment can be described thus: Antiproliferative activity against human A-375 cells assessed as cell growth inhibition incubated for 48 hrs by MTT assay. In kind it is functional, cell-based. Conditions: A-375, 48 h.
The test system of experiment [12] is HepG2. The experiment can be described thus: Antiproliferative activity against human HepG2 cells assessed as cell growth inhibition incubated for 48 hrs by MTT assay. It is filed as functional, cell-based. Conditions: HepG2, 48 h.
Experiment [13] has as its system 4T1. The experiment can be described thus: Antiproliferative activity against mouse 4T1 cells assessed as cell growth inhibition incubated for 48 hrs by MTT assay. It is filed as functional, cell-based. Conditions: 4T1, 48 h.
In experiment [14] the test system is HCT-116. Put plainly: Antiproliferative activity against human HCT-116 cells assessed as cell growth inhibition incubated for 48 hrs by MTT assay. In kind it is functional, cell-based. Conditions: HCT-116, 48 h.
Experiment [15] deals with T5, Histone deacetylase 3 (Mus musculus) (UniProt O88895).
T5 sequence (whole entry): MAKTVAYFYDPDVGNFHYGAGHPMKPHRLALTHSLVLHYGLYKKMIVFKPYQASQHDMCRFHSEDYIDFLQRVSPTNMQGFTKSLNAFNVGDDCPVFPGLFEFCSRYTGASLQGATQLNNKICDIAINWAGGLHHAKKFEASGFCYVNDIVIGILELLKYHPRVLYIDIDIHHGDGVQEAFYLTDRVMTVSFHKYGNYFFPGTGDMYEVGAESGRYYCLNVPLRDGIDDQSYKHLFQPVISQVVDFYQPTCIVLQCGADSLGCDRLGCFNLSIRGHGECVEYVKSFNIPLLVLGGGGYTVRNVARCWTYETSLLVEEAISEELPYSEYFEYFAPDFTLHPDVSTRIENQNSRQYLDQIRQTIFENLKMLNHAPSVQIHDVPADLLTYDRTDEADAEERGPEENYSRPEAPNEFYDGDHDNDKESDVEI
The experiment can be described thus: Inhibition of HDAC3 in mouse B16-F10 cells assessed as upregulation of Ac-H3 level at 3 uM incubated for 24 hrs by Western blotting analysis. It is filed as cell-based.

Experiment [16] has as its system MDA-MB-231. Put plainly: Antiproliferative activity against human MDA-MB-231 cells assessed as cell growth inhibition incubated for 48 hrs by MTT assay. It is filed as functional, cell-based. Conditions: MDA-MB-231, 48 h.

pIC50: −log10 of the molar value. Active and inactive are the calls of the source. The rule behind the calls is not given here.

Histone deacetylase 1, sequence (Q13547 whole entry): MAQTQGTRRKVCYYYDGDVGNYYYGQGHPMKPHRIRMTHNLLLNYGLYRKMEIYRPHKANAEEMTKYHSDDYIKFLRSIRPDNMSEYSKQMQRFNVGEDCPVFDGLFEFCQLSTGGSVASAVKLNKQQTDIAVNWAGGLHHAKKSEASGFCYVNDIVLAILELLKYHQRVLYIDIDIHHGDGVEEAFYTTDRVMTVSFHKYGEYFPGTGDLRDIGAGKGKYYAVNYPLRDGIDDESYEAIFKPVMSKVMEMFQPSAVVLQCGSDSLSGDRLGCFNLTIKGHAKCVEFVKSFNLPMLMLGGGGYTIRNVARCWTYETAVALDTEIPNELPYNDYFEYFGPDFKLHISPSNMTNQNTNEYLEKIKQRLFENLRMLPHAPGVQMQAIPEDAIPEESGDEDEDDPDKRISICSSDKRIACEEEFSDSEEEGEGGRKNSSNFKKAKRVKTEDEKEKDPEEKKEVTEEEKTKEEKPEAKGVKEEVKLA
Programmed cell death protein 1/Programmed cell death 1 ligand 1, sequence (Q15116 whole entry): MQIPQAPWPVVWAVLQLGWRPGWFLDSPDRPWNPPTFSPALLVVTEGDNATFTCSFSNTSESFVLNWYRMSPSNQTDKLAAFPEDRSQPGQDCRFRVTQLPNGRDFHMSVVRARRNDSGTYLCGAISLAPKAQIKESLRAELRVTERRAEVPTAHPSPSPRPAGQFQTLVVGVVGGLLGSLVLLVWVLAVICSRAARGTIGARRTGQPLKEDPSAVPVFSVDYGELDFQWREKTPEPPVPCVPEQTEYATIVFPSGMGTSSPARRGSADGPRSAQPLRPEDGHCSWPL
Programmed cell death protein 1/Programmed cell death 1 ligand 1, sequence (Q9NZQ7 whole entry): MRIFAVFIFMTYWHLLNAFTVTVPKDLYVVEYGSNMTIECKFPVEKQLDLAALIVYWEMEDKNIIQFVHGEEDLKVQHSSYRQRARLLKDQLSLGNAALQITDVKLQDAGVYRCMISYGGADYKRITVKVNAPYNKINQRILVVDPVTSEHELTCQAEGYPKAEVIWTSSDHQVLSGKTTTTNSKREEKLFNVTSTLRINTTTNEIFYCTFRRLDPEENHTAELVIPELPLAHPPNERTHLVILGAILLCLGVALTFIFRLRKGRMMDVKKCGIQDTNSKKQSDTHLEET
T4 sequence (O15379 whole entry): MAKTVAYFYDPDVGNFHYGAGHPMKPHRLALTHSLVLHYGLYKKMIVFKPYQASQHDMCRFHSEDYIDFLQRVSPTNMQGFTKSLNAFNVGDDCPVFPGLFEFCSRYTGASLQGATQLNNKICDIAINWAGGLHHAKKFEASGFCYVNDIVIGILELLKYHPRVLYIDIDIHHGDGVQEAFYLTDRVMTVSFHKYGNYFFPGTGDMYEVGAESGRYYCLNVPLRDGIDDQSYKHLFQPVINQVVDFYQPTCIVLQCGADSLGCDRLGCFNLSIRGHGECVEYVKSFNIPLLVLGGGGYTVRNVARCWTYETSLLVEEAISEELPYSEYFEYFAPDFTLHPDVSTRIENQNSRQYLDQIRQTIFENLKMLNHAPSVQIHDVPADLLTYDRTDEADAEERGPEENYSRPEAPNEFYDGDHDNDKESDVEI

`CCCNNC(=O)c1cnc(N(C)CCN(C)Cc2ccc(-c3cccc(-c4ccccc4)c3C)nc2OC)nc1`: the inhibition worked out at 28.8% in experiment [1] and 5.96% in [2].

`CCCNNC(=O)c1ccc(NCc2ccc(-c3cccc(-c4ccccc4)c3C)nc2OC)c(C)c1`: the figures for the inhibition in experiment [1] and in [2] were 4.65% and -0.25%, respectively.

Take `CCCNNC(=O)CCCCNCc1ccc(-c2cccc(-c3ccccc3)c2C)nc1OC`: the negative logarithm of the IC50 (pIC50) in [3] is below 5.00; in [4], 6.34; in experiment [5] it was below 5.00; in experiment [6], 6.95; in experiment [9], 7.15. Besides, the inhibition in [7] was 41.9%; in experiment [8], 79.4%; in experiment [1], 92.5%; in experiment [2], 54.4%.

Take `CCCNNC(=O)CCNCc1ccc(-c2cccc(-c3ccccc3)c2C)nc1OC`: the inhibition turned out to be 36% in experiment [7], 67.2% in experiment [8], 92.4% in experiment [1] and 58.8% in experiment [2].

Take `CCCNNC(=O)c1cnc(NCCCNCc2ccc(-c3cccc(-c4ccccc4)c3C)nc2OC)cn1`: the inhibition in [8] was below 50%; in [1], 80.9%; in experiment [2], 18.8%.

Turning to `CCCNNC(=O)CC1CCN(Cc2ccc(-c3cccc(-c4ccccc4)c3C)nc2OC)CC1`, the figures for the inhibition in experiment [8], in experiment [1] and in experiment [2] were below 50%, 89.4% and 25.7%, respectively.

With `CCCNNC(=O)c1cnc(NCCNCc2ccc(-c3cccc(-c4ccccc4)c3C)nc2OC)cn1`, the negative logarithm of the IC50 (pIC50) in experiment [10] is 5.16; in experiment [3] it was below 5.00; in experiment [4], 5.67; in experiment [11], 4.99; in experiment [5], below 5.00; in experiment [6], 6.77. In addition, the pIC50 in experiment [12] was 5.15; in experiment [13], 5.13; in [14], 4.83; in experiment [9] it was 7.19; in [16], 4.86. Besides, the inhibition was 40.2% in experiment [7], 79.7% in experiment [8], 94.4% in experiment [1] and 46% in [2]. Besides, in [15], the inhibition entry was “Active”.

`CCCNNC(=O)CCCCCNCc1ccc(-c2cccc(-c3ccccc3)c2C)nc1OC`: the pIC50 in experiment [3] was below 5.00; in [4] it was 6.27; in experiment [5], below 5.00; in experiment [6], 6.97; in experiment [9], 6.67. The inhibition in experiment [7] is 53.6%; in experiment [8], 82%; in experiment [1], 92.7%; in experiment [2], 37.3%.

With `CCCNNC(=O)c1ccc(NCc2ccc(-c3cccc(-c4ccccc4)c3C)nc2OC)cc1`, the inhibition in experiment [1] is 7.61%; in experiment [2] it was 1.83%.

Take `CCCNNC(=O)CNCc1ccc(-c2cccc(-c3ccccc3)c2C)nc1OC`: the inhibition in experiment [1] came to 68.9%; in [2], 19.5%.

Consider `CCCNNC(=O)c1ccc(C(=O)NCCNCc2ccc(-c3cccc(-c4ccccc4)c3C)nc2OC)cc1`, for which the inhibition in [7] came to 46.8%; in experiment [8], 74.3%; in [1], 88.1%; in experiment [2], 23.4%.

Consider `CCCNNC(=O)c1ccc(NCCNCc2ccc(-c3cccc(-c4ccccc4)c3C)nc2OC)nn1`, for which the inhibition in experiment [7] was determined as 38.5%; in [8], 69.5%; in experiment [1], 78.5%; in [2] it was 9.3%.

As for `CCCNNC(=O)c1cnc(N2CC(NCc3ccc(-c4cccc(-c5ccccc5)c4C)nc3OC)C2)nc1`, the inhibition in experiment [1] was determined as 68.2%; in experiment [2] it was 17.8%.

For `CCCNNC(=O)CC1CCCN(Cc2ccc(-c3cccc(-c4ccccc4)c3C)nc2OC)C1` (stereo not given), the inhibition in experiment [1] was 59.1%; in experiment [2], 4.75%.

Regarding `CCCNNC(=O)c1cnc(NCCNCc2ccc(-c3cccc(-c4ccccc4)c3C)nc2OC)nc1`, the inhibition in [8] was below 50%; in experiment [1], 95.1%; in [2], 44.5%.

In the case of `CCCNNC(=O)C1CCN(Cc2ccc(-c3cccc(-c4ccccc4)c3C)nc2OC)CC1`, the inhibition in experiment [7] was 33.2%; in experiment [8] it was 71.3%; in [1], 82.7%; in experiment [2], 21.7%.

`CCCNNC(=O)c1cnc(N2CC(NCc3ccc(-c4cccc(-c5ccccc5)c4C)nc3OC)C2)cn1`: the inhibition worked out at 54.5% in experiment [1] and 13.5% in [2].

Turning to `CCCNNC(=O)c1ccc(CNCc2ccc(-c3cccc(-c4ccccc4)c3C)nc2OC)cc1`, the inhibition in experiment [1] came out at 42.4%; in [2], 11.3%.

In the case of `CCCNNC(=O)CCCCCCNCc1ccc(-c2cccc(-c3ccccc3)c2C)nc1OC`, the inhibition in [8] was determined as 55.8%; in experiment [1], 89.8%; in [2], 12.5%.

Take `CCCNNC(=O)c1cnc(N2CCC(NCc3ccc(-c4cccc(-c5ccccc5)c4C)nc3OC)CC2)nc1`: the inhibition is below 50% in experiment [8], 71.7% in experiment [1] and 3.6% in experiment [2].

Take `CCCNNC(=O)c1ccc(NCCNCc2ccc(-c3cccc(-c4ccccc4)c3C)nc2OC)cc1`: the inhibition stood at 11.1% in [1] and 4.12% in [2].

Regarding `CCCNNC(=O)c1cnc(N2CCC(NCc3ccc(-c4cccc(-c5ccccc5)c4C)nc3OC)CC2)cn1`, the results for the inhibition in [1] and in experiment [2] were 62.6% and 7.82%, respectively.
